From the METLIN SMRT retention time set (Domingo-Almenara et al. 2019)

Assay: gradient 5% acetonitrile 3 min, to 50% in 2 min, to 85% in 15 min, held 3 min, 100 µL/min
Conditions: column: Zorbax Extend-C18 2.1 x 50 mm; eluents: water / acetonitrile, 0.1% formic acid
Outline: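 Retention time was recorded from adduct peaks, which were picked computationally and each inspected manually. Pure standards ran in mixtures of ~100 molecules on HPLC coupled to a quadrupole time-of-flight mass spectrometer, in positive and negative ionization mode, through a Zorbax Extend-C18 column (2.1 × 50 mm, 1.8 μm) at 100 μL/min. Eluents were water and acetonitrile, each with 0.1% formic acid.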

RP-LC retention time [s]	Structure (SMILES)
1080	Cc1c(Cl)cccc1NC(=O)Cn1c(=O)cc(-c2nc(C(C)C)no2)c2ccccc21
675	CC(C)c1nc(N2CCCC2=O)sc1C(=O)NCc1ccc(N(C)C)cc1
812	CCCN1C(=O)c2c(C(=O)NCc3ccccc3F)ncn2CC1(C)C(=O)NCc1ccccc1 (stereo not given)
1130	CCN1C(=O)COc2ccc(-c3nc(NC(=O)c4ccc(Cl)cc4)sc3C)cc21
763	O=C(c1cccc(Cl)c1)N1CCN(c2cc(-c3ccccc3)[nH]n2)CC1
1020	COC1C(=O)N(c2cccc(F)c2)C12CCN(S(=O)(=O)Cc1ccccc1)CC2 (stereo not given)
591	O=C(N[C@@H]1CN(Cc2ccsc2)CC[C@@H]1CO)c1ccccc1
783	Cc1nc(C)c(C(=O)Nc2cc(F)ccc2F)s1
909	COCCCNC(=O)CCc1cn(Cc2ccccc2F)c2ccccc12
585	O=C(Cn1c(=O)n(-c2ccccc2)c2ncccc21)NCCN1CCCCC1
1020	Cc1nn(-c2ccccc2)c(C)c1CCc1nnc2sc(-c3ccc(N(C)C)cc3)nn12
773	COc1ccc(OC)c(NC(=O)C2Oc3ccccc3NC2=O)c1 (stereo not given)
840	COC(=O)c1ccccc1NC(=O)c1cc(N2C(=O)CCS2(=O)=O)ccc1Cl
801	CCOCCCNc1ccc(-c2nnc(-c3ccc(C)cc3)o2)cn1
829	Cc1ccc(N2CCC(NC(=O)Cc3cccc(F)c3)C2=O)cc1 (stereo not given)
842	CCCCOc1ccc(CNC(=O)C2CCN(Cc3cn(CC)c4ccc(OC)cc34)CC2)cc1
974	COc1ccc(-c2nc(-c3cn(-c4ccc(F)cc4)nn3)no2)c(OC)c1
759	Cc1cccc(NC(=O)C2CC(=O)N(c3n[nH]c4cccc(F)c34)C2)c1 (stereo not given)
976	Cc1cccc(Oc2nccn3c(=O)n(CC(=O)NC(C)CCc4ccccc4)nc23)c1C (stereo not given)
1060	CCOC(=O)c1noc2nc(C)nc(NCc3ccccc3)c12
829	Cc1nnc(-c2cn(CC(=O)Nc3ccccc3Br)c3ccccc23)o1
1070	COC(=O)c1cc(OC)c(OC)cc1NC(=O)c1ccc(CSc2ccccc2)o1
656	Cc1nc(N(C)C)cc(N2CCN(C(=O)c3cccc(Br)c3)CC2)n1
1070	O=C(c1ccoc1)N1CC(Oc2cccc(-c3nc(-c4ccccc4)no3)c2)C1
955	Cc1ccc(-n2c(N3CCCC(C(=O)NCCC(C)C)C3)nc3ccsc3c2=O)cc1 (stereo not given)

RP-LC retention time [s]	Structure (SMILES)
632	O=C(CNC(=O)c1ccc(F)c(F)c1)Nc1nc2ccccc2[nH]1
646	CCOc1nc2ccccc2nc1N1CCCC(C(=O)N2CCN(C)CC2)C1 (stereo not given)
862	O=C(CN1C(=O)COc2ccc(Cl)cc21)NCC(=O)N1CCCc2ccccc21
757	CN1c2cc(Cl)ccc2C(=O)NC12CCN(C(=O)NCCc1ccccc1)CC2
626	C=CCn1c(=O)c(=O)n(Cc2ccc(C(=O)N3CCN(c4ccccn4)CC3)cc2)c2ccccc21
957	CCc1ccccc1NC(=O)N1CCCC1c1nc(-c2cccc(OC)c2)no1 (stereo not given)
618	CCOc1cccc(C2CC(c3cccc(OC)c3)=NC3(CCN(C(C)C)CC3)N2)c1O (stereo not given)
1360	CCOC(=O)c1ccc2nc(C(F)(F)F)nc(NC(C)CCc3ccccc3)c2c1 (stereo not given)
820	COC(=O)c1c2c(nc3ccccc13)CCN(C(=O)Nc1ccccc1OC)C2
791	O=C(Cc1ccccc1F)Nc1ccc(-c2cn3c(C(=O)N4CCCC4)csc3n2)cc1
1180	CCCc1ccc(-c2cc(C(=O)N3CCN(c4ncccn4)CC3)c3ccccc3n2)cc1
862	CC1Oc2ccc(-c3csc(NC(=O)c4ccccc4)n3)cc2NC1=O (stereo not given)
733	COc1ccc(NC(=O)C2CC(=O)N(c3ccc4oc(C)nc4c3)C2)cc1F (stereo not given)
1100	COc1cccc(CNC(=O)C2CCCN(c3nccnc3Sc3ccccc3)C2)c1 (stereo not given)
760	Cc1ccccc1NC(=O)CN1C(=O)CC(C)S(=O)(=O)c2ccccc21 (stereo not given)
712	O=C(CCc1c(-c2ccc(Cl)cc2)nc2ccccn12)NC1CCCCCC1
621	Clc1ccccc1-c1nnc(SCc2cccnc2)o1
1290	COc1ccc(-c2ncc3c(=O)n(Cc4ccc(Br)cc4F)c(=O)n(C)c3n2)cc1
669	CC1=C(c2ccccc2)S(=O)(=O)N=C1N1CCCN(C(=O)Nc2ccccc2)CC1
1150	CCOc1ccccc1-c1noc(Cn2c(=O)n(CC(C)C)c(=O)c3ccccc32)n1
739	Cc1nc(-c2cccc(NC(=O)CCn3nnc4ccccc4c3=O)c2)cs1
837	CSc1ncc(C(=O)N2CCN(c3ccccn3)CC2)c(-c2ccccc2)n1
756	CCOc1ncccc1CNC(=O)c1ccc2cc[nH]c2c1
1130	O=C(NCc1cccc(Br)c1)C1CCCN(c2nccnc2Sc2ccccc2)C1 (stereo not given)

Further lines, the molecule ahead of its results:

Structure (SMILES)	RP-LC retention time [s]
Cc1ccc(CNC(=O)C2CCN(C(=O)c3cc(-c4ccncc4)n[nH]3)CC2)o1	586
CCc1ccc(C2=C(C)C(N3CCC(C(=O)NC)CC3)=NS2(=O)=O)cc1	738
O=C(COc1ccc(F)cc1)NCC1CCOCC1	677
Cc1nn(C)c(C)c1CCCN(C)C(=O)CCc1ccnc(N2CCOCC2)c1	521
COc1ccc(C)cc1NC(=O)Nc1ccc2c(c1)CCN2S(=O)(=O)c1ccc(C)cc1	1100
Cc1ccc(-c2nc(C3CCN(S(=O)(=O)c4cccc(F)c4)CC3)no2)cc1	1160
Cc1oc(-c2[nH]ncc2C(=O)N(C)C)cc1S(=O)(=O)Nc1ccc(F)cc1	670
CCSc1nnc(-c2nn(C)c3c2CN(C(=O)c2cccc(Cl)c2)CC3)n1C	788
O=C(Nc1cccnc1)c1cccc(S(=O)(=O)N2CCCCCC2)c1	631
Cc1ccc(N2CCn3c2nc2c3c(=O)n(CC(=O)O)c(=O)n2C)cc1	730
Cc1ccc(S(=O)(=O)N(c2ccc(Br)cc2)C2C=CS(=O)(=O)C2)cc1 (stereo not given)	887
Cc1nc2cc(N3CCCC(C(=O)NCCN4CCOCC4)C3)cnc2nc1C (stereo not given)	557
CCC(CO)NCc1ccc(-c2ccc(Cl)cc2Cl)o1 (stereo not given)	692
CN1c2cc(Cl)ccc2C(=O)NC12CCN(C(=O)Nc1cccc(F)c1)CC2	831
C/C=C1/CN2CC[C@]34C(=C(C=O)[C@H]1C[C@H]23)Nc1ccccc14	606
Cc1nc(-c2ccncc2)nc2c1CC(=O)N2C1CCCCC1	716
CCOC(=O)CCC(=O)Nc1nnc(-c2sc(C)nc2C)o1	621
CC(C)c1cccc(NS(=O)(=O)c2cc3n(c2)CCCNC3=O)c1	723
Cc1nn(-c2cc(N3CCOCC3)ncn2)c(C)c1CCC(=O)NCc1ccco1	711
Cc1cc(C2CCCN2C(=O)Nc2ccc(C)c(Cl)c2)on1 (stereo not given)	893
CCc1cc2nn(CC#N)c(=O)n2c(C(C)C)n1	871

Structure (SMILES)	RP-LC retention time [s]
Cc1nnc(NC(=O)c2nc(-c3cnccn3)no2)s1	598
c1ccc2c(c1)CCN(Cc1nc(-c3ccc(N4CCCCCC4)nc3)no1)C2	816
CCCn1cnnc1C1CCN(Cc2cccc(OCC)c2)CC1	601
N#Cc1ccc(CN2CCCC2=O)cc1	658
CC(C)CC(=O)N1CCN(c2ccc(=O)n(-c3cccc(Cl)c3)n2)CC1	829
COc1cccc(CNC(=O)N2CCC3(C2)C(=O)N(C)c2ccc(OC)cc23)c1 (stereo not given)	704
CN(C(=O)Cn1nc2n(c1=O)CCCCC2)c1ccccc1	655
O=C(c1cccc(OCC2CCCN(C(=O)C3CCCO3)C2)c1)N1CCCCC1 (stereo not given)	750
COc1ccc(N2CCN(CCNC(=O)c3ccc(S(=O)(=O)N(C)C)cc3)CC2)cc1	589
CCOC(=O)N1CCN(Cc2nc(-c3ccc(N4CCCCC4)nc3)no2)CC1	757
Cc1[nH]c(C(=O)NCc2ccccc2Cl)c(C)c1S(=O)(=O)N1CCCC1	866
Cc1nn(-c2ccccc2)c(C)c1S(=O)(=O)N1CCC(C(=O)NC2CC2)CC1	744
O=C(NCc1ccco1)C1CCN(c2ncccc2-c2nc(-c3ccc(Cl)cc3)no2)CC1	1090
c1csc(CN2CCC(c3nc(-c4cnccn4)n[nH]3)CC2)c1	555
Cc1cc2c(cc1S(=O)(=O)N1CCCC1)N(C(=O)C1CC1)CC2	876
O=C(Nc1ccc(C(=O)N2CCOCC2)c(N2CCCCCC2)c1)C1CC1	743
Cc1cc(=O)n(CC(=O)Nc2ccc(F)c(F)c2)c(N2CCCC2)n1	671
COc1cc(NC(=O)N2CCC(C)(C(=O)NCc3ccc(F)cc3)CC2)cc(OC)c1OC	737
O=C(NC1CCN(c2nnc3ccccn23)CC1)c1ccc2c(c1)OCO2	628
CN(CCNC(=O)c1ccc2[nH]c3c(c2c1)CN(C(=O)C1CCC1)CC3)C1CCCCC1	646
